Here are results for 29 molecules from US8802664B2 (Bioproject, priority 2010, dated 2014).

This test deals with T1, human H4 receptor (Homo sapiens, UniProt Q9H3N8).
T1 construct: expressed in transfected cells
T1 sequence (Q9H3N8 whole entry): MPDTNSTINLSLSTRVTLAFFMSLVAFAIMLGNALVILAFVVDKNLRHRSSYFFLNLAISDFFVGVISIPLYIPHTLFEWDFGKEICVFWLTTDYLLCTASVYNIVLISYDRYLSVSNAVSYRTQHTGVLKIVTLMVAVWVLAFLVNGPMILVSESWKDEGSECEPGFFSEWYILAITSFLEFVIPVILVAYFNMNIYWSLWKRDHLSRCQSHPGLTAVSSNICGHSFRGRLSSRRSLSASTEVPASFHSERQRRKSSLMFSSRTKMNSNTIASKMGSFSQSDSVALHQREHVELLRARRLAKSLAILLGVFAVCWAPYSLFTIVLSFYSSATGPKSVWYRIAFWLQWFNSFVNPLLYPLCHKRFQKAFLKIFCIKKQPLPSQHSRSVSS
Description: [3H]Histamine binding on membranes of CHO cells stably expressing human H4 receptor. In short, it runs like this:
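Filter-bound counts (liquid scintillation) gave H4 binding. Incubation used 20 μg membrane protein/well in Tris/HCl 50 mM plus EDTA 0.5 mM at pH 7.4, and 10 μM JNJ 7777120 set nonspecific binding. Filtration on GF/B pretreated with polyethyleneimine stopped the reaction.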
Turning to `CN1CCC(OC(c2cccc(OCc3cccnc3)c2)c2nc3ccccc3s2)CC1` (centres unmarked) [Example 284, 2-{(1-methylpiperidin-4-yloxy)[3-(pyridin-3-ylmethoxy)phenyl]methyl}benzothiazole], the Ki or IC50 activity class is under 300 nM.
The same measure for `CN1CCC(OC(c2cccc(C#CCCCCN)c2)c2nc3ccccc3s2)CC1` (centres unmarked) [Example 319, 6-{3-[benzothiazol-2-yl(1-methylpiperidin-4-yloxy)methyl]phenyl}hex-5-ynylamine]: under 30 nM.
The same measure for `CN1CCC(OC(c2cccc(CCCCCCN)c2)c2nc3ccccc3[nH]2)CC1` (centres unmarked) [Example 344, 6-{3-[(1H-benzimidazol-2-yl)(1-methylpiperidin-4-yloxy)methyl]phenyl}hexylamine]: under 300 nM.
The same measure for `CN1CCC(OC(c2cccc(N3CCC(F)C3)c2)c2nc3ccccc3s2)CC1` (centres unmarked) [Example 430, 2-[[3-(3-fluoropyrrolidin-1-yl)phenyl](1-methylpiperidin-4-yloxy)methyl]benzothiazole]: under 30 nM.
As for `Cc1cc(F)cc(C(OC2CCN(C)CC2)c2nc3ccccc3s2)c1` (centres unmarked) [Example 38, 2-[(3-fluoro-5-methylphenyl)(1-methylpiperidin-4-yloxy)methyl]benzothiazole], the Ki or IC50 activity class is under 300 nM.
Consider `C=CCOc1cccc(C(OC2CCN(C)CC2)c2nc3ccccc3s2)c1` (centres unmarked) [Example 22, 2-[(3-allyloxyphenyl)(1-methylpiperidin-4-yloxy)methyl]benzothiazole], for which the Ki or IC50 activity class is under 30 nM.
The same measure for `CN1CCC(OC(c2cccc(CCCCCNC(=N)N)c2)c2nc3ccccc3s2)CC1` (centres unmarked) [Example 365, N-(5-{3-[benzothiazol-2-yl(1-methylpiperidin-4-yloxy)methyl]phenyl}pentyl)guanidine]: under 300 nM.
The same measure for `CN1CCC(OC(c2cccc(CCCNC(=O)OC(C)(C)C)c2)c2nc3ccccc3[nH]2)CC1` (centres unmarked) [Example 313, N-tert-butoxycarbonyl-N′-(3-{3-[(1H-benzimidazol-2-yl)(1-methylpiperidin-4-yloxy)methyl]phenyl}propyl)amine]: under 300 nM; for `C=Cc1cccc(C(OC2CCN(C)CC2)c2nc3ccccc3[nH]2)c1` (centres unmarked) [Example 245, 2-[(1-methylpiperidin-4-yloxy)(3-vinyl-phenyl)methyl]-1H-benzimidazole]: under 300 nM.
The same measure for `CCn1c(C(OC2CCN(C)CC2)c2cccc(C#CCCCCN)c2)nc2ccccc21` (centres unmarked) [Example 503]: under 300 nM; for `CN1CCC(OC(c2cccc(C#CCNC(=N)NC(=O)OC(C)(C)C)c2)c2nc3ccccc3[nH]2)CC1` (centres unmarked) [Example 336, N-tert-butoxycarbonyl-N′-(3-{3-[(1H-benzimidazol-2-yl)(1-methylpiperidin-4-yloxy)methyl]phenyl}prop-2-ynyl)guanidine]: under 300 nM; for `CN1CCC(OC(c2cccc(C#CC3CCNCC3)c2)c2nc3ccccc3[nH]2)CC1` (centres unmarked) [Example 376, 2-[(1-methylpiperidin-4-yloxy)(3-piperidin-4-ylethynyl-phenyl)methyl]-1H-benzimidazole]: under 1000 nM.
`CN1CCC(OC(c2ccc3cc[nH]c3c2)c2nc3ccccc3[nH]2)CC1` (centres unmarked) [Example 550, 2-[(1H-indol-6-yl)(1-methylpiperidin-4-yloxy)methyl]-1H-benzimidazole]: the Ki or IC50 activity class is under 30 nM.
For `CN1CCC(OC(c2ccc3occc3c2)c2nc3ccccc3s2)CC1` (centres unmarked) [Example 46, 2-[benzofuran-5-yl(1-methylpiperidin-4-yloxy)methyl]benzothiazole], the Ki or IC50 activity class is under 300 nM.
In turn, `CN1CCC(OC(c2cccc(N3CCC(F)(F)C3)c2)c2nc3ccccc3[nH]2)CC1` (centres unmarked) [Example 491] displayed a Ki or IC50 activity class of under 1000 nM.
The same measure for `CN1CCC(OC(c2cccc(-c3cccc(CC#N)c3)c2)c2nc3ccccc3s2)CC1` (centres unmarked) [Example 98, {3′-[benzothiazol-2-yl(1-methylpiperidin-4-yloxy)methyl]biphenyl-3-yl}acetonitrile]: under 300 nM; for `CN1CCC(NC(c2cccc(OCCF)c2)c2nc3ccccc3[nH]2)CC1` (centres unmarked) [Example 180, {(1H-benzimidazol-2-yl)[3-(2-fluoro-ethoxy)phenyl]methyl}(1-methylpiperidin-4-yl)amine]: under 30 nM; for `CN1CCC(OC(c2cccc(CCCCCNC(=N)NC(=O)OC(C)(C)C)c2)c2nc3ccccc3[nH]2)CC1` (centres unmarked) [Example 335, N-tert-butoxycarbonyl-N′-(-{3-[(1H-benzimidazol-2-yl)(1-methylpiperidin-4-yloxy)methyl]phenyl}pentyl)guanidine]: under 300 nM.
The same measure for `CN1CCC(OC(c2cccc(OCCN3CCN(C(=O)OC(C)(C)C)CC3)c2)c2nc3ccccc3[nH]2)CC1` (centres unmarked) [Example 369, 4-(2-{3-[(1H-benzimidazol-2-yl)(1-methylpiperidin-4-yloxy)methyl]phenoxy}ethyl)piperazine-1-carboxylic acid tert-butyl ester]: under 1000 nM; for `CSc1cccc(C(OC2CCN(C)CC2)c2nc3ccccc3s2)c1` (centres unmarked) [Example 201, 2-[(1-methylpiperidin-4-yloxy)(3-methylsulfanyl-phenyl)methyl]benzothiazole]: under 30 nM; for `Cc1ccc(C(OC2CCN(C)CC2)c2nc3ccccc3[nH]2)cc1` (single isomer, unassigned) [Example 252, 2-[(1-methylpiperidin-4-yloxy)-p-tolylmethyl]-1H-benzimidazole]: under 1000 nM.
The same measure for `CN1CCC(OC(c2cccc(OC3CCC(N)CC3)c2)c2nc3ccccc3s2)CC1` (centres unmarked) [Example 477]: under 1000 nM; for `CCCCOc1cccc(C(NC2CCN(C)CC2)c2nc3ccccc3[nH]2)c1` (centres unmarked) [Example 69, [(1H-benzimidazol-2-yl)(3-butoxyphenyl)methyl](1-methylpiperidin-4-yl)amine]: under 30 nM.
Molecule `CN1CCC(OC(c2cccc(-c3ccccc3)c2)c2nc3ccccc3[nH]2)CC1` (centres unmarked) [Example 81, 2-[biphenyl-3-yl(1-methylpiperidin-4-yloxy)methyl]-1H-benzimidazole] gave a Ki or IC50 activity class of under 300 nM.
The same measure for `CN1CCC(NC(c2cccc(OCc3cccc(F)c3)c2)c2nc3ccccc3[nH]2)CC1` (centres unmarked) [Example 105, {(1H-benzimidazol-2-yl)[3-(3-fluorobenzyloxy)phenyl]methyl}(1-methylpiperidin-4-yl)amine]: under 30 nM; for `CN1CCC(OC(c2cccc(SCC3=NCCN3)c2)c2nc3cc(F)ccc3[nH]2)CC1` (centres unmarked) [Example 463]: under 1000 nM.
The same measure for `CN1CCC(OC(c2cccc(OCCCN3CCN(C(=O)OC(C)(C)C)CC3)c2)c2nc3ccccc3s2)CC1` (centres unmarked) [Example 351, 4-(3-{3-[benzothiazol-2-yl(1-methylpiperidin-4-yloxy)methyl]phenoxy}propyl)piperazine-1-carboxylic acid tert-butyl ester]: under 1000 nM; for `CN1CCC(OC(c2cccc(N3CC4CC(N)CC4C3)c2)c2nc3ccccc3s2)CC1` (centres unmarked) [Example 471]: under 300 nM; for `CN1CCC(OC(c2cccc(OCc3cccc(F)c3F)c2)c2nc3ccccc3s2)CC1` (centres unmarked) [Example 161, 2-[[3-(2,3-difluorobenzyloxy)phenyl](1-methylpiperidin-4-yloxy)methyl]benzothiazole]: under 30 nM.
